According to the supplement of paper PMC8612539:
Converted amounts (≈) assume the structure as drawn.

Tests used:
Mannheimia haemolytica = assay: minimum inhibitory concentration (MIC)
Procedure: (§1)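 Broth microdilution MIC (Sensititre BOPO7F bovine plate, CLSI methods) of 19 antimicrobials against field isolates of P. multocida, M. haemolytica, H. somni (deep nasopharyngeal swabs) and E. coli, Enterococcus spp. (rectal swabs) from weaned dairy heifers. Incubation 16-24 h at 35 C. MIC is the lowest concentration preventing visible growth. Values with <= or > lie at the tested range limits. Trimethoprim-sulfamethoxazole is given as the trimethoprim component of a 1:19 mixture.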

Enterococcus spp. = assay: minimum inhibitory concentration (MIC)
Procedure: as §1

CC[C@H]1OC(=O)C[C@@H](O)[C@H](C)[C@@H](O[C@@H]2O[C@H](C)[C@@H](O[C@H]3C[C@@](C)(O)[C@@H](O)[C@H](C)O3)[C@H](N(C)C)[C@H]2O)[C@@H](CC=O)C[C@@H](C)C(=O)/C=C/C(C)=C/[C@@H]1CO[C@@H]1O[C@H](C)[C@@H](O)[C@@H](OC)[C@H]1OC [Tylosin]
minimum inhibitory concentration [µg/mL]
Details	Enterococcus spp.	Mannheimia haemolytica
isolate (source animal id): 2	2 (≈ 2.18 µM)	–
isolate (source animal id): 8	–	> 32
isolate (source animal id): 13	–	> 32
isolate (source animal id): 18	–	> 32
isolate (source animal id): 21	–	> 32
isolate (source animal id): 25	–	> 32
isolate (source animal id): 27	–	> 32
isolate (source animal id): 28	–	> 32
isolate (source animal id): 30	–	> 32
isolate (source animal id): 31	–	> 32
isolate (source animal id): 32	–	> 32
isolate (source animal id): 34	–	> 32
isolate (source animal id): 35	> 32	–
isolate (source animal id): 36	–	> 32
isolate (source animal id): 37	–	> 32
isolate (source animal id): 40	–	32 (≈ 34.9 µM)
isolate (source animal id): 41	–	> 32
isolate (source animal id): 42	2 (≈ 2.18 µM)	–
isolate (source animal id): 43	–	> 32
isolate (source animal id): 44	2 (≈ 2.18 µM)	–
isolate (source animal id): 46	–	> 32
isolate (source animal id): 49	–	> 32
isolate (source animal id): 50	–	> 32
isolate (source animal id): 51	–	> 32
isolate (source animal id): 52	–	> 32
isolate (source animal id): 53	–	> 32
isolate (source animal id): 55	–	32 (≈ 34.9 µM)
isolate (source animal id): 56	–	> 32
isolate (source animal id): 57	–	> 32
isolate (source animal id): 79	2 (≈ 2.18 µM)	–
isolate (source animal id): 88	2 (≈ 2.18 µM)	–
isolate (source animal id): 91	2 (≈ 2.18 µM)	–
isolate (source animal id): 92	2 (≈ 2.18 µM)	–
isolate (source animal id): 100	–	> 32
isolate (source animal id): 103	–	> 32
isolate (source animal id): 107	–	> 32
isolate (source animal id): 108	–	> 32
isolate (source animal id): 111	2 (≈ 2.18 µM)	–
isolate (source animal id): 112	–	> 32
isolate (source animal id): 113	–	> 32
isolate (source animal id): 121	–	> 32
isolate (source animal id): 122	> 32	> 32
isolate (source animal id): 123	2 (≈ 2.18 µM)	> 32
isolate (source animal id): 126	–	> 32
isolate (source animal id): 133	2 (≈ 2.18 µM)	> 32
isolate (source animal id): 135	–	> 32
isolate (source animal id): 138	–	> 32
isolate (source animal id): 141	–	> 32
isolate (source animal id): 142	–	> 32
isolate (source animal id): 145	–	> 32
isolate (source animal id): 149	–	> 32
isolate (source animal id): 151	–	> 32
isolate (source animal id): 152	–	> 32
isolate (source animal id): 154	–	> 32
isolate (source animal id): 158	> 32	–
isolate (source animal id): 159	–	> 32
isolate (source animal id): 162	–	> 32
isolate (source animal id): 168	2 (≈ 2.18 µM)	–
isolate (source animal id): 169	2 (≈ 2.18 µM)	–
isolate (source animal id): 170	–	> 32
isolate (source animal id): 171	2 (≈ 2.18 µM)	> 32
isolate (source animal id): 172	–	> 32
isolate (source animal id): 173	–	> 32
isolate (source animal id): 175	> 32	–
isolate (source animal id): 177	4 (≈ 4.37 µM)	–
isolate (source animal id): 179	–	32 (≈ 34.9 µM)
isolate (source animal id): 180	–	> 32
isolate (source animal id): 181	2 (≈ 2.18 µM)	–
isolate (source animal id): 182	2 (≈ 2.18 µM)	–
isolate (source animal id): 183	2 (≈ 2.18 µM)	> 32
isolate (source animal id): 186	–	> 32
isolate (source animal id): 187	2 (≈ 2.18 µM)	> 32
isolate (source animal id): 188	–	> 32
isolate (source animal id): 190	2 (≈ 2.18 µM)	> 32
isolate (source animal id): 191	–	> 32
isolate (source animal id): 192	–	> 32
isolate (source animal id): 194	2 (≈ 2.18 µM)	–
isolate (source animal id): 195	2 (≈ 2.18 µM)	–
isolate (source animal id): 197	2 (≈ 2.18 µM)	–
isolate (source animal id): 201	–	> 32
isolate (source animal id): 202	–	> 32
isolate (source animal id): 209	–	> 32
isolate (source animal id): 211	2 (≈ 2.18 µM)	> 32
isolate (source animal id): 214	2 (≈ 2.18 µM)	–
isolate (source animal id): 220	–	> 32
isolate (source animal id): 221	–	> 32
isolate (source animal id): 222	4 (≈ 4.37 µM)	–
isolate (source animal id): 223	2 (≈ 2.18 µM)	> 32
isolate (source animal id): 228	> 32	–
isolate (source animal id): 230	> 32	–
isolate (source animal id): 233	–	> 32
isolate (source animal id): 235	> 32	–
isolate (source animal id): 236	8 (≈ 8.73 µM)	–
isolate (source animal id): 237	–	> 32
isolate (source animal id): 239	2 (≈ 2.18 µM)	–
isolate (source animal id): 241	> 32	> 32
isolate (source animal id): 244	2 (≈ 2.18 µM)	–
isolate (source animal id): 246	2 (≈ 2.18 µM)	–
isolate (source animal id): 247	> 32	–
isolate (source animal id): 250	2 (≈ 2.18 µM)	–
isolate (source animal id): 252	> 32	> 32
isolate (source animal id): 253	–	> 32
isolate (source animal id): 259	–	> 32
isolate (source animal id): 260	–	> 32
isolate (source animal id): 262	–	> 32
isolate (source animal id): 268	> 32	–
isolate (source animal id): 282	2 (≈ 2.18 µM)	> 32
isolate (source animal id): 285	> 32	–
isolate (source animal id): 287	–	> 32
isolate (source animal id): 288	–	> 32
isolate (source animal id): 289	2 (≈ 2.18 µM)	–
isolate (source animal id): 290	4 (≈ 4.37 µM)	–
isolate (source animal id): 291	–	> 32
isolate (source animal id): 293	–	> 32
isolate (source animal id): 296	2 (≈ 2.18 µM)	–
isolate (source animal id): 298	≤ 0.5	> 32
isolate (source animal id): 299	–	> 32
isolate (source animal id): 300	–	32 (≈ 34.9 µM)
isolate (source animal id): 301	2 (≈ 2.18 µM)	–
isolate (source animal id): 302	–	> 32
isolate (source animal id): 304	–	> 32
isolate (source animal id): 306	–	> 32
isolate (source animal id): 308	–	> 32
isolate (source animal id): 309	–	> 32
isolate (source animal id): 310	> 32	–
isolate (source animal id): 313	–	> 32
isolate (source animal id): 318	–	> 32
isolate (source animal id): 320	2 (≈ 2.18 µM)	> 32
isolate (source animal id): 321	–	> 32
isolate (source animal id): 323	–	> 32
isolate (source animal id): 324	–	> 32
isolate (source animal id): 326	–	> 32
isolate (source animal id): 328	–	> 32
isolate (source animal id): 329	–	> 32
isolate (source animal id): 331	4 (≈ 4.37 µM)	–
isolate (source animal id): 333	2 (≈ 2.18 µM)	> 32
isolate (source animal id): 335	–	> 32
isolate (source animal id): 338	–	> 32
isolate (source animal id): 341	> 32	–
